Measured values taken from PubChem BioAssay AID2060502 (Molecular Pharmacology Branch, DTP, NCI, 2025).

Test system: 885724-159-R-J1-PDC complex spheroid viability
Assay: Anticancer human tumor 885724-159-R-J1-PDC patient-derived pancreatic adenocarcinoma cell line growth inhibition [GQUAD]
Conditions: for IC50: curve of first compound; for viability, T/C: stronger effect = lower value; active = viability on the fitted dose curve at most 10% of control; inactive = the rest
Summary of the method: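 Viability of tumor cells grown as complex spheroids with endothelial and stromal cells, exposed to drug combinations. Top concentration at or near clinical Cmax (else 10 microM), diluted in half-log increments.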

[1] = second compound 0.0316 µM, first compound 0.0316 µM
[2] = second compound 0.0316 µM, first compound 0.316 µM
[3] = second compound 0.1 µM, first compound 0.0316 µM
[4] = second compound 0.1 µM, first compound 0.316 µM
[5] = second compound 0.316 µM, first compound 0.0316 µM
[6] = second compound 0.316 µM, first compound 0.316 µM
[7] = second compound 1 µM, first compound 0.0316 µM
[8] = second compound 1 µM, first compound 0.316 µM
[9] = second compound 3.16 µM, first compound 0.0316 µM
[10] = second compound 3.16 µM, first compound 0.316 µM
[11] = second compound 10 µM, first compound 0.0316 µM
[12] = second compound 10 µM, first compound 0.316 µM
[13] = second compound 0.0316 µM, first compound 0.000999 µM
[14] = second compound 0.0316 µM, first compound 0.00316 µM
[15] = second compound 0.0316 µM, first compound 0.00999 µM
[16] = second compound 0.0316 µM, first compound 0.0999 µM
[17] = second compound 0.1 µM, first compound 0.000999 µM
[18] = second compound 0.1 µM, first compound 0.00316 µM
[19] = second compound 0.1 µM, first compound 0.00999 µM
[20] = second compound 0.1 µM, first compound 0.0999 µM
[21] = second compound 0.316 µM, first compound 0.000999 µM
[22] = second compound 0.316 µM, first compound 0.00316 µM
[23] = second compound 0.316 µM, first compound 0.00999 µM
[24] = second compound 0.316 µM, first compound 0.0999 µM
[25] = second compound 1 µM, first compound 0.000999 µM
[26] = second compound 1 µM, first compound 0.00316 µM
[27] = second compound 1 µM, first compound 0.00999 µM
[28] = second compound 1 µM, first compound 0.0999 µM
[29] = second compound 3.16 µM, first compound 0.000999 µM
[30] = second compound 3.16 µM, first compound 0.00316 µM
[31] = second compound 3.16 µM, first compound 0.00999 µM
[32] = second compound 3.16 µM, first compound 0.0999 µM
[33] = second compound 10 µM, first compound 0.000999 µM
[34] = second compound 10 µM, first compound 0.00316 µM
[35] = second compound 10 µM, first compound 0.00999 µM
[36] = second compound 10 µM, first compound 0.0999 µM
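Also: spheroids exposed to agents for seven days before readout.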
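For viability, T/C in this document: percent of vehicle control viability where 100% = DMSO wells.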

CC(=O)O[C@H]1C(=O)[C@@]2(C)[C@H]([C@H](OC(=O)c3ccccc3)[C@]3(O)C[C@H](OC(=O)[C@H](O)[C@@H](NC(=O)c4ccccc4)c4ccccc4)C(C)=C1C3(C)C)[C@]1(OC(C)=O)CO[C@@H]1C[C@@H]2O + Cc1cnc(CNC(=O)c2c(=O)c3ccc(N4CCCN(C)CC4)nc3n3c2sc2ccccc23)cn1
> 10000 nM: IC50 (second compound 0.0316 µM) | IC50 (second compound 0.1 µM) | IC50 (second compound 0.316 µM) | IC50 (second compound 1 µM) | IC50 (second compound 3.16 µM) | IC50 (second compound 10 µM)
inactive: viability, T/C [1] 103% | viability, T/C (second compound 0.0316 µM, first compound 0.1 µM) 97.3% | viability, T/C [2] 96.9% | viability, T/C (second compound 0.0316 µM, first compound 1 µM) 108% | viability, T/C (second compound 0.0316 µM, first compound 3.16 µM) 104% | viability, T/C (second compound 0.0316 µM, first compound 10 µM) 107% | viability, T/C [3] 111% | viability, T/C (second compound 0.1 µM, first compound 0.1 µM) 105% | viability, T/C [4] 99.3% | viability, T/C (second compound 0.1 µM, first compound 1 µM) 119% | viability, T/C (second compound 0.1 µM, first compound 3.16 µM) 113% | viability, T/C (second compound 0.1 µM, first compound 10 µM) 108% | viability, T/C [5] 110% | viability, T/C (second compound 0.316 µM, first compound 0.1 µM) 114% | viability, T/C [6] 107% | viability, T/C (second compound 0.316 µM, first compound 1 µM) 88.7% | viability, T/C (second compound 0.316 µM, first compound 3.16 µM) 118% | viability, T/C (second compound 0.316 µM, first compound 10 µM) 105% | viability, T/C [7] 95.9% | viability, T/C (second compound 1 µM, first compound 0.1 µM) 93.3% | viability, T/C [8] 98.9% | viability, T/C (second compound 1 µM, first compound 1 µM) 93.6% | viability, T/C (second compound 1 µM, first compound 3.16 µM) 106% | viability, T/C (second compound 1 µM, first compound 10 µM) 86% | viability, T/C [9] 77% | viability, T/C (second compound 3.16 µM, first compound 0.1 µM) 78.6% | viability, T/C [10] 84.9% | viability, T/C (second compound 3.16 µM, first compound 1 µM) 79.5% | viability, T/C (second compound 3.16 µM, first compound 3.16 µM) 88.8% | viability, T/C (second compound 3.16 µM, first compound 10 µM) 99.6% | viability, T/C [11] 66% | viability, T/C (second compound 10 µM, first compound 0.1 µM) 68.7% | viability, T/C [12] 78.4% | viability, T/C (second compound 10 µM, first compound 1 µM) 78.8% | viability, T/C (second compound 10 µM, first compound 3.16 µM) 74.1% | viability, T/C (second compound 10 µM, first compound 10 µM) 70.1%

CC[C@@]1(O)C(=O)OCc2c1cc1n(c2=O)Cc2cc3c(CN(C)C)c(O)ccc3nc2-1 + Cc1cnc(CNC(=O)c2c(=O)c3ccc(N4CCCN(C)CC4)nc3n3c2sc2ccccc23)cn1
inactive: viability, T/C [13] 117% | viability, T/C [14] 95.5% | viability, T/C [15] 103% | viability, T/C [1] 106% | viability, T/C [16] 89.1% | viability, T/C [2] 65.5% | viability, T/C [17] 125% | viability, T/C [18] 98.7% | viability, T/C [19] 101% | viability, T/C [3] 103% | viability, T/C [20] 85.5% | viability, T/C [4] 75.2% | viability, T/C [21] 96.1% | viability, T/C [22] 104% | viability, T/C [23] 87.6% | viability, T/C [5] 95% | viability, T/C [24] 100% | viability, T/C [6] 70.1% | viability, T/C [25] 88.6% | viability, T/C [26] 84.1% | viability, T/C [27] 95.2% | viability, T/C [7] 80.3% | viability, T/C [28] 87.8% | viability, T/C [8] 70.3% | viability, T/C [29] 74.8% | viability, T/C [30] 69.5% | viability, T/C [31] 75% | viability, T/C [9] 75.9% | viability, T/C [32] 73.9% | viability, T/C [10] 64.5% | viability, T/C [33] 70.7% | viability, T/C [34] 81.1% | viability, T/C [35] 72.7% | viability, T/C [11] 74.2% | viability, T/C [36] 80% | viability, T/C [12] 69.1%
> 316 nM: IC50 (second compound 0.0316 µM) | IC50 (second compound 0.1 µM) | IC50 (second compound 0.316 µM) | IC50 (second compound 1 µM) | IC50 (second compound 3.16 µM) | IC50 (second compound 10 µM)

CCc1c2c(nc3ccc(O)cc13)-c1cc3c(c(=O)n1C2)COC(=O)[C@]3(O)CC + Cc1cnc(CNC(=O)c2c(=O)c3ccc(N4CCCN(C)CC4)nc3n3c2sc2ccccc23)cn1
81.7 nM: IC50 (second compound 0.0316 µM)
57 nM: IC50 (second compound 1 µM)
41.8 nM: IC50 (second compound 0.1 µM)
48.3 nM: IC50 (second compound 0.316 µM)
active: viability, T/C [6] 4.89% | viability, T/C [8] 0.87% | viability, T/C [10] 0.45% | viability, T/C [12] 0.45%
33 nM: IC50 (second compound 3.16 µM)
inactive: viability, T/C [13] 101% | viability, T/C [14] 97.1% | viability, T/C [15] 75.1% | viability, T/C [1] 66.2% | viability, T/C [16] 54.1% | viability, T/C [2] 9.27% | viability, T/C [17] 114% | viability, T/C [18] 90.5% | viability, T/C [19] 68.8% | viability, T/C [3] 60.4% | viability, T/C [20] 45.2% | viability, T/C [4] 7.81% | viability, T/C [21] 93.2% | viability, T/C [22] 82.7% | viability, T/C [23] 72.2% | viability, T/C [5] 54.4% | viability, T/C [24] 42.4% | viability, T/C [25] 77.2% | viability, T/C [26] 78.6% | viability, T/C [27] 63.8% | viability, T/C [7] 61.3% | viability, T/C [28] 41.7% | viability, T/C [29] 73.9% | viability, T/C [30] 72.1% | viability, T/C [31] 57.8% | viability, T/C [9] 48.3% | viability, T/C [32] 36.7% | viability, T/C [33] 66.5% | viability, T/C [34] 69.6% | viability, T/C [35] 53.6% | viability, T/C [11] 54.8% | viability, T/C [36] 30.7%
32.6 nM: IC50 (second compound 10 µM)
